Data taken from PMC7764606 (Cancers, 2020).
Like-named read-outs stand apart in the source and are kept apart here.

Legend:
recombinant AKR1C3 = biological target: T1, recombinant AKR1C3 (Homo sapiens, UniProt P42330); assay: Reduction of Dau by recombinant AKR1C3 (UHPLC detection of Dau-ol); type: biochemical; conditions: for reduction of AKR1C3 activity (Dau reduction): Dau 500 µM, relative to DMSO; for Ki: read-out: Ki^app (Morrison equation for tight-binding inhibitors)
T1 construct: made in house; host or cells: Escherichia coli
T1 sequence (P42330 1-323): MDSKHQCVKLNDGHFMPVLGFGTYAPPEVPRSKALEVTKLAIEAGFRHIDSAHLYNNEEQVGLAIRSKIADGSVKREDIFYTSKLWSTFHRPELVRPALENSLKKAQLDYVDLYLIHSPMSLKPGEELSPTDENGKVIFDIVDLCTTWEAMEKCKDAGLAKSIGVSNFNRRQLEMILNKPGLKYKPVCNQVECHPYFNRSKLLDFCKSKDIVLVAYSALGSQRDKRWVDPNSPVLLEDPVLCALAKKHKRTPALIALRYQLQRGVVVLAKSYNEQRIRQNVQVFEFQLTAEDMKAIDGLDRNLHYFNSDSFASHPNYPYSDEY
Experimental: (§1) Human recombinant CREs (CBR1, AKR1A1, 1B1, 1B10, 7A2, and 1C3) were produced by an Escherichia coli expression system as per methods described previously. For the inhibitory assay, each recombinant enzyme, CBR1 (1 µg), AKR1A1 (1 µg), AKR1B1 (5 µg), AKR1B10 (5 µg), AKR7A2 (3 µg), or AKR1C3 (1.5 µg) was incubated with BTK inhibitors at different concentrations (10 and 50 µM) and the substrate Dau (500 µM). For analysis using the Lineweaver-Burk plot, 1.5 µg of recombinant AKR1C3 was incubated with DMSO or BTK inhibitors (1, 5, and 10 µM) and Dau (200, 400, 600, 800, 1000, and 2000 µM). […] The incubations and further metabolite detection were further performed by using ultra-high-performance liquid chromatography (UHPLC) as per methods described previously.

A549 cells = assay: MTT cell viability, A549 cells (incl. Chou-Talalay analysis); type: cell-based, human
Experimental: (§2) Twenty-four hours prior to the experiment, transfected HCT116 cells (8 × 10^3 cells/well) or A549 cells (5 × 10^3 cells/well) were seeded in 96-well plates. The cell culture medium was replaced with fresh medium containing increasing amounts of Dau (final concentrations: 0.01, 0.05, 0.1, 0.25, 0.5, 0.75, 1, and 10 µM) with or without BTK inhibitors (final concentrations: 1, 5, and 10 µM). After 72 h of incubation under standard conditions (37 °C, 5% CO2), cell viability was assessed by MTT (Sigma-Aldrich, Prague, Czech Republic) assay. For this, 50 µL of the MTT solution (3 mg/mL) was added to each well and incubated for 30 min. The supernatant was collected, and the cell monolayers were dissolved in 100 µL of DMSO. The absorbance was measured at 570 and 690 nm by a microplate reader Infinite M200 (Tecan, Salzburg, Austria), and the background values at 690 nm were subtracted from the absorbance obtained at 570 nm. The half-maximal inhibitory concentrations (IC50) were calculated using GraphPad Prism 8.1.2. The drug combination pharmacodynamics were determined by the Chou-Talalay method using the CompuSyn ver. 3.0.1 software (ComboSyn Inc., Paramus, NJ, USA).

[1] = system: T2, AKR1C3 in HCT116-C3 cells; assay: Dau metabolism to Dau-ol in HCT116 cells transiently overexpressing AKR1C3; type: cell-based, human; conditions: 5 h
T2 construct: expressed in transfected cells; host or cells: HCT116
Experimental: (§3) HCT116 cells were seeded (1.25 × 10^5 cells/well) in 24-well plates and cultured for 24 h. For the transient expression of the recombinant human AKR1C3, the cells were transfected with a pCI_AKR1C3 or empty pCI plasmid as control (previously described in a study by Hofman et al.) according to the manufacturer’s instructions (jetPRIME® Transfection Reagent; Polyplus Transfection®, Illkirch, France). For each 24-well plate, a mixture of 0.75 µL of the jetPRIME® Transfection Reagent and 0.25 µg of plasmid was incubated for 10 min at room temperature. Then, polyplexes were added to the HCT116 cells with 0.5 mL of fresh DMEM supplemented with 10% FBS and incubated for 24 h (37 °C, 5% CO2). The expression of recombinant AKR1C3 was verified by western blotting as per methods described previously.
After transfection of HCT116 cells or seeding of A549 cells (25 × 10^3 cells/well) in 24-well plates for 24 h, the medium was harvested and replaced with DMEM supplemented with 10% FBS containing 1 µM daunorubicin, with or without increasing concentrations (1, 5, and 10 μM) of BTK inhibitors. Cells were incubated (37 °C, 5% CO2) for 2.5 and 5 h (transfected HCT116) or only 5 h (A549). Then, the medium was collected and the cells were lysed in lysis buffer (25 mM Tris, 150 mM NaCl, and 1% Triton X-100, pH 7.8) for 15 min at room temperature. The collected medium was combined with cell lysate for further extraction and analysis of metabolites, as per methods described previously.

HCT116-EV cells = assay: MTT cell viability, HCT116-EV cells (incl. Chou-Talalay analysis); type: cell-based, human
Experimental: as §3, §2

[2] = system: AKR1C3 expression in A549 cells; assay: AKR1C3 protein levels in A549 cells by western blotting; type: cell-based, human; conditions: 1, 5 and 10 µM, 72 h, western blot relative to β-actin
Experimental: A549 cells were incubated with DMSO or BTK inhibitors (1, 5, and 10 µM) for 72 h, and then total protein was extracted for analysis of AKR1C3 expression by western blotting (WB) as per methods described previously. A representative WB is shown for IBR (A) and ACA (B) incubations, and bars represent AKR1C3 protein levels as determined by densitometry relative to β-actin (n = 3, mean ± SD). Uncropped images from WB are available in Figure S1 in the Supplementary Materials. On the other hand, HCT116-EV and HCT116-C3 cells were treated with increasing concentrations of IBR (C) and ACA (D) for 72 h, and their viability was assessed by MTT assay. Graphs represent a comparison of the dose-response curves for percentages of cell viability in each cell line (n = 6, mean ± SD).

[3] = single oral dose of 140 mg; cited from earlier work
recombinant AKR1B10 = system: T3, recombinant AKR1B10; assay: Reduction of Dau by recombinant AKR1B10 (UHPLC detection of Dau-ol); type: biochemical, Human; conditions: Dau 500 µM, relative to DMSO
T3 construct: made in house; host or cells: Escherichia coli
Experimental: as §1

[4] = BTK-inhibitor 5 µM + Dau 0.25 µM
[5] = BTK-inhibitor 5 µM + Dau 0.50 µM

`COc1cccc2c1C(=O)c1c(O)c3c(c(O)c1C2=O)C[C@@](O)(C(C)=O)C[C@@H]3O[C@H]1C[C@H](N)[C@H](O)[C@H](C)O1` [Dau, daunorubicin] showed a Km (recombinant AKR1C3; substrate Dau, recombinant AKR1C3, read-out: Km used in the Morrison equation) of 387 ± 36 µM.
With `C=CC(=O)N1CCC[C@@H](n2nc(-c3ccc(Oc4ccccc4)cc3)c3c(N)ncnc32)C1` [Ibrutinib, ibrutinib] the “Fraction affected (Fa %)” value (A549 cells; BTK-inhibitor 1 µM + Dau 0.01 µM) was 21.92 ± 2.37%, the “Fraction affected (Fa %)” value (A549 cells; BTK-inhibitor 1 µM + Dau 0.25 µM) was 43.16 ± 2.59% and the “Fraction affected (Fa %)” value (A549 cells; BTK-inhibitor 1 µM + Dau 0.50 µM) was 71.16 ± 6.46%. For the same molecule, the “Fraction affected (Fa %)” value (A549 cells; BTK-inhibitor 1 µM + Dau 0.75 µM) was 86.63 ± 0.72%, the “Fraction affected (Fa %)” value (A549 cells; BTK-inhibitor 1 µM + Dau 1.00 µM) was 91.12 ± 0.72% and the “Fraction affected (Fa %)” value (A549 cells; BTK-inhibitor 5 µM + Dau 0.01 µM) was 33.76 ± 1.79%. The “Fraction affected (Fa %)” value (A549 cells; [4]) was 54.13 ± 5.98%, the “Fraction affected (Fa %)” value (A549 cells; [5]) was 85.67 ± 2.02% and the “Fraction affected (Fa %)” value (A549 cells; BTK-inhibitor 5 µM + Dau 0.75 µM) was 91.76 ± 0.78%. The “Fraction affected (Fa %)” value (A549 cells; BTK-inhibitor 5 µM + Dau 1.00 µM) was 94.00 ± 0.28%, the “decrease in AKR1C3 activity (Dau to Dau-ol)” value (from here on “decrease in AKR1C3 activity”) ([1]; 1 µM BTK inhibitor + 1 µM Dau) was 29.40% ± 11.55% and the “decrease in AKR1C3 activity” value ([1]; 5 µM BTK inhibitor + 1 µM Dau) was 45.16% ± 0.86%. For the same molecule, the “decrease in AKR1C3 activity” value ([1]; 10 µM BTK inhibitor + 1 µM Dau) was 60.72% ± 6%, the “Fraction affected (Fa %)” value (HCT116-EV cells; [4]) was 58.13 ± 12.2% and the “Fraction affected (Fa %)” value (HCT116-EV cells; [5]) was 77.56 ± 6.90%. For the same molecule, the “Fraction affected (Fa %)” value (HCT116-EV cells; BTK-inhibitor 10 µM + Dau 0.25 µM) was 58.56 ± 7.79%, the “Fraction affected (Fa %)” value (HCT116-EV cells; BTK-inhibitor 10 µM + Dau 0.50 µM) was 81.92 ± 4.25% and the IC50 (HCT116-EV cells; Homo sapiens, 72 h MTT, read-out: IC50 of BTK inhibitor alone (cell viability)) was 17000 nM. The “effect on expression (protein levels) of AKR1C3” value [2] was “negligible or absence of effects”, the “reduction of AKR1C3 activity (Dau reduction)” value (recombinant AKR1C3; 10 µM BTK inhibitor) was 92.17% ± 3.43% and the “reduction of AKR1C3 activity (Dau reduction)” value (recombinant AKR1C3; 50 µM BTK inhibitor) was 96.41% ± 1.48%. For the same molecule, the Ki (recombinant AKR1C3; AKR1C3 0.005 mg/mL (0.135 μM)) was 312 nM, the Ki (recombinant AKR1C3; AKR1C3 0.015 mg/mL (0.405 μM)) was 332 nM and the Ki (recombinant AKR1C3; AKR1C3 0.030 mg/mL (0.811 μM)) was 354 nM. For the same molecule, the “mode of inhibition (Lineweaver-Burk plot)” value (recombinant AKR1C3; recombinant AKR1C3 with increasing Dau) was “non-competitive/mixed”, the “mean Cmax” value [3] was 37.1 ng/mL and the “inhibition of AKR1B10 activity (Dau reduction)” value (recombinant AKR1B10; 10 µM BTK inhibitor) was 48.18% ± 2.10%. The “inhibition of AKR1B10 activity (Dau reduction)” value (recombinant AKR1B10; 50 µM BTK inhibitor) was 74.97% ± 0.87%.
